Measurements: patent publication US20190256822A1, “HEPATIC CELL LINE RESISTANT TO DIMETHYL SULFOXIDE, CELL CULTURE AND USES THEREOF” (Academisch Medisch Centrum, priority 2016, published 2019)

Columns and labels:
CAR target gene CYP2B6 = experiment: CYP induction: CYP2B6 transcript levels after CITCO (CAR inducer); type: cell-based, human
HepaRG cells [1] = experiment: Lactate production after culture with DMSO; type: cell-based, human
Method: The cultures were washed twice with PBS and then exposed to phenol-red free HepaRG culture medium with 1.5 mM ^15NH4Cl (Sigma), 2.27 mM D-galactose (Sigma), and 2 mM L-lactate (Sigma) without DMSO. Medium samples were taken after 45 min, 8 and 24 hours of incubation. Production or elimination rates were established by calculating the concentration changes of different compounds, as indicated below, in the test media in time, and were corrected for protein content per well.

HepG2 cells [2] = experiment: Mitochondrial content (mitochondrial to nuclear DNA ratio) after culture with DMSO; type: cell-based, human; settings: HepG2-CAR cultured with DMSO vs HepG2-CAR without DMSO
Excerpt: (§1) To assess the cellular mitochondrial content the inventors determined the mitochondrial/nuclear DNA ratio. Total DNA was isolated with the QIAamp DNA Mini Blood kit (QIAgen) according to manufacturer's instructions.
(§2) For a list of PCR-primers used, see supplementary table 1.

HepaRG cells [3] = experiment: as above; type: cell-based, human; settings: vs cells not cultured in presence of DMSO
Excerpt: as §1, §2

CAR mRNA = CAR mRNA levels after culture with DMSO; type: cell-based, human
Method: (§3) RT-qPCR measurements were performed on a Lightcycler 480 (Roche) with Sensifast SYBR Green master mix (Bioline) according to manufacturer's instructions. […] Normalized mRNA levels are expressed as a percentage of the mean mRNA levels of two human liver samples normalized to 18S rRNA. The human liver samples were obtained from two female patients with liver adenoma and no elevated liver damage. […] The samples were taken after obtaining written informed consent and the procedure was approved by the Academic Medical Center's committee on human experimentation (protocol number 03/024).

HepaRG cells [4] = settings: human, 14 days, 1.7 %
Method: For testing, the cells were fully matured during 28 days in 12- or 24-well culture plates. […] For testing the effect of CAR overexpression HepaRG and HepaRG-CAR cultures of similar passage (±1 passage) were compared, between passage 15-19.
(§4) Protein levels of cell cultures were assessed with the Bio-Rad Protein Assay (Bio-Rad, Hercules, Calif.) according to manufacturer's instructions after lysis in 0.2 M NaOH for 1 h at 37° C.

HepG2 cells [5] = settings: human, 1.7 %
Method: HepG2 cells were maintained in T75 flasks until 80-90% confluency after which they were propagated in new flasks. The cells were propagated similarly as HepaRG cells. HepG2 cells were seeded at a 1:3-1:4 ratio in 12 or 24 well plates.
as §4

HepaRG monolayers = settings: cited from earlier work
AHR target gene CYP1A2 = settings: 24 h, 40 μM
Method: as §3
Transcript levels of CYP genes were compared in cultures with and without induction.

[6] = tested on: HepaRG+/-CAR monolayer cultures
Method: At the 0 h time point the cells were incubated for 5 s to correct for non-specific binding of the added compounds to the cells and the culture plate. Medium samples of the indicated time points were immediately frozen at −80° C. Prior to HPLC analysis samples were thawed on ice and deproteinized with the addition of 4 volumes of acetonitrile (for prednisolone and theophylline), vacuum evaporated and dissolved in water. Warfarin samples were instead deproteinized with 2 volumes of methanol and spun down for 5 minutes at 20000 g at 4° C. Supernatants were used for HPLC analysis.
Reverse-phase HPLC detection was done as follows. Deproteinized samples (100 μl for prednisolone and theophylline, 30 μl for warfarin) were applied to a Hypersil C18, 3 μm, 15 cm HPLC column (Thermo Scientific). Starting eluent consisted of 6.8 mM ammoniumformate (pH 3.9), followed by several steps of linear gradients to different concentrations of acetonitrile (ACN) (Biosolve, Valkenswaard, The Netherlands). […] Detection of prednisolone was performed at λabs=254 nm, theophylline at λabs=270 nm, warfarin at λexc=310 nm/λem=390 nm. Quantification was done by using calibration curves of prednisolone, theophylline, or warfarin.

Clc1ccc(-c2nc3sccn3c2/C=N/OCc2ccc(Cl)c(Cl)c2)cc1 [CITCO]
fold induction of CYP2B6 transcript (CAR target gene CYP2B6; CITCO 1 μM, 24 h, control and modified HepaRG monolayers, independent of DMSO treatment): 4.2-6.1 ×
fold induction of CYP2B6 transcript (CAR target gene CYP2B6; control HepaRG BALIAD culture without DMSO, CITCO 24 h): 6.5 ×
fold induction of CYP2B6 transcript (CAR target gene CYP2B6; modified HepaRG BALIAD culture without DMSO, CITCO 24 h): 3.6 ×
total CYP2B6 mRNA level after induction, of human liver (CAR target gene CYP2B6; modified HepaRG BALIAD, CITCO 24 h): ≤ 1023%
total CYP2B6 transcript level after induction, of human liver (CAR target gene CYP2B6; modified HepaRG monolayer, CITCO 24 h): ≤ 430%

C[S+](C)[O-] [DMSO, dimethyl sulfoxide]
reduction of lactate production (HepaRG cells [1]; HepaRG-CAR monolayer cultured with DMSO vs control cells without DMSO): 92%
reduction of lactate production (HepaRG cells [1]; control HepaRG monolayer cultured with DMSO vs control cells without DMSO): 57%
increase of mitochondrial to nuclear DNA ratio (HepG2 cells [2]): 1.3 ×
increase of mitochondrial to nuclear DNA ratio (HepaRG cells [3]; HepaRG-CAR monolayer): 2 ×
increase of mitochondrial to nuclear DNA ratio (HepaRG cells [3]; unmodified HepaRG monolayer): 1.8 ×
CAR mRNA level, of human liver (CAR mRNA; control HepaRG cells cultured with DMSO (5.3% without)): 15%
CAR mRNA level, of human liver (CAR mRNA; modified HepaRG cells cultured with DMSO (108% without)): 208%
reduction of protein content (HepaRG cells [4]): 40%
reduction of total protein content (HepaRG cells [4]): 19%
reduction of total protein content (HepG2 cells [5]): 15%-18
increase of cell leakage (HepaRG monolayers): 3- to 4 fold
reduction of total cellular protein content (HepaRG monolayers): more than 50%

COc1ccc2[nH]c([S+]([O-])Cc3ncc(C)c(OC)c3C)nc2c1 (centres unmarked) [omeprazole]
total CYP1A2 mRNA level after induction, of human liver (AHR target gene CYP1A2): ≤ 31%
total CYP1A2 transcript level after induction, of human liver (AHR target gene CYP1A2): ≤ 23%

C[C@]12C=CC(=O)C=C1CC[C@@H]1[C@@H]2[C@@H](O)C[C@@]2(C)[C@H]1CC[C@]2(O)C(=O)CO [prednisolone]
clearance rate in HepaRG-CAR cultured with DMSO compared to all other conditions [6]: cleared at an increased rate

Cn1c(=O)c2[nH]cnc2n(C)c1=O [theophylline, theophylline anhydrous]
clearance [6]: could not reliably observe any clearance

CC(=O)CC(c1ccccc1)c1c(O)c2ccccc2oc1=O (centres unmarked) [warfarin]
clearance rate in HepaRG-CAR cultured with DMSO compared to all other conditions [6]: cleared at an increased rate
period of linear clearance ([6]; human, 1 μM): 24 to 48 h
